Drawing on the SangsterLogP compilation, this text covers logD and logP for 20 compounds.

Broadly, the logD is lipophilicity at a set pH, counting ionised and neutral species. Read a low logD as a more hydrophilic compound. One may read the logP as a log measure of how a compound divides between an organic and an aqueous phase. A higher logP goes with a more lipophilic compound.

The nature of the first data set: method code SF-HPLC, from DOI: 10.1016/0005-2728(88)90027-8, PMID: 3196713. The conditions noted are these: pH 2.2.
On to `O=C(Nc1ccc(F)cc1)c1cc(Cl)cc(Cl)c1O`, for which the logD was 4.76.
Same read-out and setting: the figure for `Cc1ccccc1NC(=O)c1cc(Cl)ccc1O` is 4.21.
Consider `O=C(Nc1ccccc1Cl)c1ccccc1O`, for which the logD amounted to 4.35.

Assay in another data set: not given
Details: not given
Turning to `O=C(Nc1ccc(Cl)cc1[N+](=O)[O-])c1cc(Cl)cc(Cl)c1O`, the logP was 5.08.
Still for that read-out and setting: in the case of `O=C(Nc1ccc(Br)cc1)c1ccccc1O` it was 4.51; in that of `O=C(Nc1ccc(F)cc1F)c1cc(Br)cc(Br)c1O`, 4.99; in that of `Cc1cc(Br)ccc1NC(=O)c1cc(F)ccc1O`, 5.15.
`O=C(Nc1ccc(F)cc1F)c1cc(Cl)cc(Cl)c1O`: the lipophilicity (logP) was 4.55.
`O=C(Nc1ccccc1)c1cc(Cl)ccc1O` displayed a lipophilicity (logP) of 3.98.
The compound `Cc1cc(Cl)ccc1NC(=O)c1cc(F)ccc1O` registered a logP of 4.89.
On to `Cc1cc(Cl)ccc1NC(=O)c1ccccc1O`, for which the logP was determined as 5.18.
Compound `O=C(Nc1ccc(Cl)cc1)c1ccccc1O` displayed a logP of 4.29.
The compound `O=C(Nc1ccc(Cl)cc1[N+](=O)[O-])c1ccccc1O` came in with a logP of 4.02.
Compound `O=C(Nc1ccccc1[N+](=O)[O-])c1ccccc1O` gave a logP of 2.87.
`O=C(Nc1ccc(Cl)cc1[N+](=O)[O-])c1cc(Br)cc(Br)c1O` had a log partition coefficient (logP) of 5.05.
In the case of `O=C(Nc1ccccc1)c1cc(Cl)cc(Cl)c1O`, the lipophilicity (logP) was determined as 4.01.
For the compound `Cc1cc([N+](=O)[O-])ccc1NC(=O)c1cc(Cl)cc(Cl)c1O`, the logP is 4.51.
For `O=C(Nc1ccc(Cl)cc1)c1cc(Cl)cc(Cl)c1O`, the log partition coefficient (logP) amounted to 5.15.
On the same count and under the same terms, in the case of `O=C(Nc1ccc(Cl)cc1Cl)c1ccccc1O` it was 5.49; in that of `O=C(Nc1ccc(Cl)cc1)c1cc(Br)ccc1O`, 5.02.
